Results taken from paper PMC12136037, “Type II kinase inhibitors that target Parkinson’s disease–associated LRRK2” (Science Advances, 2025).
Where “and” joins values, the source holds several entries; their conditions need not be identical. Identical values can stand only once.

Target: T1, LRRK2^RCKW (Homo sapiens, UniProt Q5S007)
T1 construct: LRRK2 R1327 to E2527; His6-Z-tag (TEV cleavable) (N, cleaved yes); host or cells: Sf9 insect cells (baculovirus)
T1 sequence (Q5S007 1327-2527): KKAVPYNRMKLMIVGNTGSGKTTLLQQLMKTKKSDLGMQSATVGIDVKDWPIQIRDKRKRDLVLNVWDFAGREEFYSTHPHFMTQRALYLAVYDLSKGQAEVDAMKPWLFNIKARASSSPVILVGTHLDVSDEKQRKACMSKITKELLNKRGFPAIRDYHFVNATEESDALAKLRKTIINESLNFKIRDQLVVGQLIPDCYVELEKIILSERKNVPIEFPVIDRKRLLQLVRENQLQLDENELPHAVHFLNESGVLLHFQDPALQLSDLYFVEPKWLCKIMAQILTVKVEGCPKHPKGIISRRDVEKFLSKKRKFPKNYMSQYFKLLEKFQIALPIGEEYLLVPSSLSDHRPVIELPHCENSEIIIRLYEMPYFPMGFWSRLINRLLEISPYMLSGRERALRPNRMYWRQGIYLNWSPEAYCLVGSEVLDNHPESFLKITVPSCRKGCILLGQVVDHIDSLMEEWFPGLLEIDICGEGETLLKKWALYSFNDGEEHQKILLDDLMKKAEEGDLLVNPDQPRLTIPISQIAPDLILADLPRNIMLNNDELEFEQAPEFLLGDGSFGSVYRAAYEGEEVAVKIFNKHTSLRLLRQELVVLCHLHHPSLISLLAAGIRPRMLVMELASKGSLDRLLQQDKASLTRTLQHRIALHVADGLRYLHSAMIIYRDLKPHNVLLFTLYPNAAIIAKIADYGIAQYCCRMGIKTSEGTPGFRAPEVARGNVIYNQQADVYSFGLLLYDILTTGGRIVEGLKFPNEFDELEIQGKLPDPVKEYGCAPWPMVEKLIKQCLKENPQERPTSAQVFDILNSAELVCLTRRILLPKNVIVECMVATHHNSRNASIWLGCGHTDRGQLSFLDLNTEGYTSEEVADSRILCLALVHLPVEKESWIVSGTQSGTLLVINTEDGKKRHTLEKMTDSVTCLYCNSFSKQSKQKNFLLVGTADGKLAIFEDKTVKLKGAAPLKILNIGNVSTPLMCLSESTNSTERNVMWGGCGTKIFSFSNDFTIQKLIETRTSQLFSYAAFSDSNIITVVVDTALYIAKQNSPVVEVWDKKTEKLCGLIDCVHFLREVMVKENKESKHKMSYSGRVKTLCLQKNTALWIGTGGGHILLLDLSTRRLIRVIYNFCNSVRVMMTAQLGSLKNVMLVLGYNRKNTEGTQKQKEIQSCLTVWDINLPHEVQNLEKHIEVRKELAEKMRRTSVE
Experiment: Biochemical LRRK2 activity assay (PhosphoSense, AssayQuant SOX peptide AQT0615)
Details: for IC50: LRRK2^RCKW kinase activity, in vitro; for normalized response (LRRK2 activity): normalized to 0% (no kinase) and 100% (no inhibitor) control, two singlicate columns per compound
Protocol: Two wells per compound were used as 0% (without protein and compound) and 100% (without compound) control. […] The 0% control wells were filled with 10 μl of pure reaction buffer. With the ECHO, 5 nl of 100 mM ATP was pipetted into each well, the plates were centrifuged at 1500g for 2 min, and the reaction was incubated at room temperature for 4 hours. The fluorescence of the SOX-peptide after 360-nm excitation was measured at 487-nm emission with a PHERAstar plate reader (BMG Labtech). The IC50 values were calculated from a nonlinear regression of the log[inhibitor] versus the normalized response with GraphPad Prism 8 (www.graphpad.com/, RRID:SCR_002798).

| Compound | IC50 [nM] | normalized response (LRRK2 activity) (log[inhibitor(mol)] -4.82391) | normalized response (LRRK2 activity) (log[inhibitor(mol)] -5.12494) | normalized response (LRRK2 activity) (log[inhibitor(mol)] -5.60206) | normalized response (LRRK2 activity) (log[inhibitor(mol)] -6.30103) | normalized response (LRRK2 activity) (log[inhibitor(mol)] -6.90309) | normalized response (LRRK2 activity) (log[inhibitor(mol)] -7.30103) | normalized response (LRRK2 activity) (log[inhibitor(mol)] -7.60206) | normalized response (LRRK2 activity) (log[inhibitor(mol)] -8.09691) | normalized response (LRRK2 activity) (log[inhibitor(mol)] -8.61979) | normalized response (LRRK2 activity) (log[inhibitor(mol)] -9.09691) | normalized response (LRRK2 activity) (log[inhibitor(mol)] -9.39794) |
| --- | --- | --- | --- | --- | --- | --- | --- | --- | --- | --- | --- | --- |
| O=C(Nc1ccc(F)cc1)C1(C(=O)Nc2cccc(-c3c[nH]c4ncnc(N5CCOCC5)c34)c2)CC1 [Compound 2] | 185 ± 10 | -3.585% and -13.2094% | -9.6118% and -10.6428% | -5.033% and -3.426% | 19.2953% and 18.2204% | 61.3205% and 61.6605% | 88.0559% and 79.7364% | 100.582% and 98.3497% | 94.604% and 97.0225% | 106.516% and 96.1066% | 107.272% and 96.9347% | 103.198% and 102.243% |
| O=C(Nc1cccc(-c2c[nH]c3ncnc(N4CCOCC4)c23)c1)c1cccn(-c2ccc(F)cc2)c1=O [Compound 4] | 167 ± 4 | 9.714% and 10.3287% |  |  | 8.354% and 15.3302% | 58.3207% and 57.3774% | 76.6433% and 88.9388% | 88.7743% and 91.0393% | 93.6662% and 93.1068% | 96.9841% and 102.616% | 103.96% and 100.631% | 95.5418% and 116.272% |
| O=C(Nc1ccccc1)C1(C(=O)Nc2cccc(-c3c[nH]c4ncnc(N5CCOCC5)c34)c2)CC1 [Compound 12] | 350 ± 25 | 0.1647% and -9.791% | -4.574% and -1.793% | 1.386% and 6.849% | 35.45% and 38.9177% | 76.566% and 79.9356% | 91.6032% and 94.9482% | 99.2139% and 97.704% | 99.3121% and 101.951% | 104.222% and 110.035% | 103.486% and 106.278% | 106.585% and 109.47% |
| O=C(Nc1ccc(Cl)cc1)C1(C(=O)Nc2cccc(-c3c[nH]c4ncnc(N5CCOCC5)c34)c2)CC1 [Compound 13] | 717 ± 14 |  |  | 15.0853% and 13.379% | 62.4187% and 38.0646% | 95.7707% and 92.6957% | 101.552% and 99.1095% | 102.657% and 105.64% | 106.745% and 99.576% | 101.35% and 101.951% | 104.075% and 108.101% | 110.679% and 104.597% |
| Cc1ccc(NC(=O)C2(C(=O)Nc3cccc(-c4c[nH]c5ncnc(N6CCOCC6)c45)c3)CC2)cc1 [Compound 14] | 156 ± 33 |  | -6.986% and -9.956% | 21.8981% and 20.2655% | 13.87% and 15.03% | 58.2022% and 57.0299% | 81.6541% and 110.82% | 85.6497% and 54.8081% | 91.8548% and 92.1679% | 98.0477% and 97.5874% | 93.5857% and 99.2323% | 96.7834% and 110.495% |
| CCc1ccc(NC(=O)C2(C(=O)Nc3cccc(-c4c[nH]c5ncnc(N6CCOCC6)c45)c3)CC2)cc1 [Compound 15] | 960 ± 33 |  | -0.2711% and -2.401% | 22.7451% and 24.0892% | 67.6419% and 69.4402% | 95.7584% and 98.1889% | 103.897% and 98.4037% | 108.801% and 106.855% | 103.13% and 100.705% | 105.315% and 96.9982% | 106.518% and 101.982% | 107.174% and 104.775% |
| COc1ccc(NC(=O)C2(C(=O)Nc3cccc(-c4c[nH]c5ncnc(N6CCOCC6)c45)c3)CC2)cc1 [Compound 16] | 1100 ± 217 | -5.114% and -9.8151% | 0.6005% and -2.272% | 29.0484% and 32.3505% | 66.3591% and 78.0881% | 96.3721% and 94.5984% | 96.366% and 105.259% | 97.2621% and 95.7829% | 97.8759% and 91.3822% | 98.0661% and 96.7588% | 100.497% and 98.6001% | 96.0714% and 99.3612% |
| O=C(Nc1cccc(-c2c[nH]c3ncnc(N4CCOCC4)c23)c1)C1(C(=O)Nc2ccc(F)c(F)c2)CC1 [Compound 17] | 253 ± 33 | -1.222% and -11.0979% | -9.447% and -10.6928% | 0.9319% and 1.085% | 26.1821% and 29.3798% | 67.0342% and 72.3494% | 85.8031% and 94.494% | 98.3853% and 103.983% | 103.068% and 102.123% | 111.403% and 110.329% | 113.398% and 109.795% | 105.315% and 104.756% |
| O=C(Nc1cccc(-c2c[nH]c3ncnc(N4CCOCC4)c23)c1)C1(C(=O)Nc2ccc(F)c(Cl)c2)CC1 [Compound 18] | 152 ± 44 |  | -12.1904% and -14.2894% | -3.604% and -4.745% |  | 53.6603% and 67.7094% | 89.4919% and 81.5068% |  | 92.5361% and 84.907% | 95.9241% and 92.0144% | 91.7935% and 96.8386% | 94.1994% and 95.2858% |
